Source: patent US20170226072A1, “1,4-Disubstituted Piperidines, 1,4-Disubstituted Piperazines, 1,4-Disubstituted Diazepines, and 1,3-Disubstituted Pyrrolidine Compounds” (University of Kentucky Research Foundation, priority 2013, published 2017)

Assays:
[1] = molecular target: T1, serotonin transporter (SERT) (Rattus norvegicus, UniProt P31652); experiment: [3H]5-HT uptake assay, striatal synaptosomal preparation; format: biochemical; conditions: rat striatal synaptosomes, GBR-12935 (100 nM) in buffer; read-out: SERT [3H]5-HT Uptake Inhibition Mean ± SEM (Ki)
T1 construct: from tissue
T1 sequence (P31652 whole entry): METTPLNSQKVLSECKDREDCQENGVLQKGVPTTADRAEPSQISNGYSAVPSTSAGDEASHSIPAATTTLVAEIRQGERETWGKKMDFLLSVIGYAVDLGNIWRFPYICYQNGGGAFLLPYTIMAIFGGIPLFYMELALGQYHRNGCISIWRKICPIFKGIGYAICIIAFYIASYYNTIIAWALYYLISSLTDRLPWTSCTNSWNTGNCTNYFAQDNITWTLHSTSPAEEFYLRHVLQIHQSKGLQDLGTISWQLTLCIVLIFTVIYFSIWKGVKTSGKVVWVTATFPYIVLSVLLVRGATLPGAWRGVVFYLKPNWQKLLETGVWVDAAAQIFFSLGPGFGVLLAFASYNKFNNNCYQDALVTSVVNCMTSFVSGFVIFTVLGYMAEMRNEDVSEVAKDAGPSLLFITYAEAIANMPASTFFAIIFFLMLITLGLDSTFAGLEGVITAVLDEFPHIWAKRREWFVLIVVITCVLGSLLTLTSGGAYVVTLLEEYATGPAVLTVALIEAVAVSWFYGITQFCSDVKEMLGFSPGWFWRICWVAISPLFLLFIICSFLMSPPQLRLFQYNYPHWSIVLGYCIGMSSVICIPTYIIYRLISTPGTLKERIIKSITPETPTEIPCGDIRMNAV
Protocol: (§1) [^3H]DA and [^3H]5-HT Uptake Assay, Synaptosomal Preparation
(§2) [^3H]DA and [^3H]5-HT uptake into striatal synaptosomes was determined to evaluate compound inhibition of the dopamine transporter (DAT) and the serotonin transporter (SERT), respectively. […] Homogenates were centrifuged at 2000 g for 10 min at 4° C., and resulting supernatants were centrifuged at 20,000 g for 17 min at 4° C. […] Assays were performed in duplicate in a total volume of 500 (for DAT assays) or 250 μL (for SERT assays). […] Reactions were terminated by addition of 3 mL of ice-cold assay buffer and subsequent filtration and radioactivity retained by the filters was determined by liquid scintillation spectrometry (Tri-Carb 2100TR liquid scintillation analyzer; PerkinElmer Life and Analytical Sciences, Boston, Mass.).

VMAT2 [2] = molecular target: T2, VMAT2 (Rattus norvegicus, UniProt Q01827); experiment: [3H]Dopamine ([3H]DA) uptake assay, vesicular preparation; format: biochemical
T2 construct: conducted using isolated synaptic vesicle preparations; from tissue; host or cells: rat striatum, isolated synaptic vesicles
T2 sequence (Q01827 whole entry): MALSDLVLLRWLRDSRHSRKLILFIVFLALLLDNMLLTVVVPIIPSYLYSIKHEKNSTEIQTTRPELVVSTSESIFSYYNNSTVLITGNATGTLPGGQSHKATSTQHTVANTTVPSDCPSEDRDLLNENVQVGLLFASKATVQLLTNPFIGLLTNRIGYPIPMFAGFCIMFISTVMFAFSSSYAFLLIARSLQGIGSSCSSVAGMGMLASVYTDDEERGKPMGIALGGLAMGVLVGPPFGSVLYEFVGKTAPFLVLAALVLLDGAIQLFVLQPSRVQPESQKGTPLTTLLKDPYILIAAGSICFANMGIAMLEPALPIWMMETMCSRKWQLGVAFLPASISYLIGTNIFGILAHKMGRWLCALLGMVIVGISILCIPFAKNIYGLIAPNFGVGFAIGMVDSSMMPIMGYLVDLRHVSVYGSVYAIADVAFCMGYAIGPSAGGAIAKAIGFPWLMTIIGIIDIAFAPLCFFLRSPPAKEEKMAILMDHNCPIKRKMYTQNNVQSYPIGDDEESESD
Protocol: [^3H]Dopamine ([^3H]DA) Uptake Assay, Vesicular Preparation
Homogenates were centrifuged (2,000 g for 10 min at 4° C.), and then the supernatants were centrifuged (10,000 g for 30 min at 4° C.). Pellets were resuspended in 2 ml of 0.32 M sucrose solution and subjected to osmotic shock by adding 7 ml of ice-cold MilliQ water to the preparation. After 1 min, osmolarity was restored by adding 900 μl of 0.25 M HEPES buffer and 900 μl of 1.0 M potassium tartrate solution. Samples were centrifuged (20,000 g for 20 min at 4° C.), and the supernatants were centrifuged (55,000 g for 1 hr at 4° C.), followed by addition of 100 μl of 10 mM MgSO4, 100 μl of 0.25 M HEPES and 100 μl of 1.0 M potassium tartrate solution prior to the final centrifugation (100,000 g for 45 min at 4° C.). Final pellets were resuspended in 2.4 ml of assay buffer (25 mM HEPES, 100 mM potassium tartrate, 50 μM EGTA, 100 μM EDTA, 1.7 mM ascorbic acid, 2 mM ATP-Mg^2+, pH 7.4). Aliquots of the vesicular suspension (100 μl) were added to tubes containing assay buffer, various concentrations of compound (0.1 nM-10 mM) and 0.1 μM [^3H]DA in a final volume of 500 and incubated at 37° C. for 8 min. […] Reactions were terminated by filtration, and radioactivity retained by the filters was determined by liquid scintillation spectrometry (Tri-Carb 2100TR liquid scintillation analyzer; PerkinElmer Life and Analytical Sciences, Boston, Mass.).

[3] = molecular target: T3, dopamine transporter (DAT) (Rattus norvegicus, UniProt P23977); experiment: [3H]DA uptake assay, striatal synaptosomal preparation; format: biochemical; conditions: rat striatal synaptosomes; read-out: DAT [3H]DA Uptake Inhibition Mean ± SEM (Ki)
T3 construct: from tissue; host or cells: rat striatum, synaptosomes
T3 sequence (P23977 whole entry): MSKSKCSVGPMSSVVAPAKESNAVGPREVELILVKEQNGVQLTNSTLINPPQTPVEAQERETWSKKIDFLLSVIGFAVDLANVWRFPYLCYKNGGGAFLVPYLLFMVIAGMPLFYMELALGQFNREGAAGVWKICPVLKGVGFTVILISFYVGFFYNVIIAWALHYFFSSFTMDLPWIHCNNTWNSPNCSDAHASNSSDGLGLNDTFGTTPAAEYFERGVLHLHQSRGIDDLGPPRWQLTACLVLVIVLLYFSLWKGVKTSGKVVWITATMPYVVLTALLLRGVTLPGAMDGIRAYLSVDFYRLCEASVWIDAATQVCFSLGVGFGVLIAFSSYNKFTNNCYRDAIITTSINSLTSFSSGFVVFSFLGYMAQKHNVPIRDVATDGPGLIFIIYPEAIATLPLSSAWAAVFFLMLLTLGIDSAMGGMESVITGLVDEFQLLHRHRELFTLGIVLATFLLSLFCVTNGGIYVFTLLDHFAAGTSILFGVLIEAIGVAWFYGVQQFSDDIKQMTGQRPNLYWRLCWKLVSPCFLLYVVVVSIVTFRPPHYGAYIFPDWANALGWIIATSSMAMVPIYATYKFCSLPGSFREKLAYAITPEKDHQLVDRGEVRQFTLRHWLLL
Protocol: as §1, §2

VMAT2 [4] = molecular target: T2, VMAT2; experiment: [3H]Dihydrotetrabenazine ([3H]DTBZ) binding assay, vesicular preparation; conditions: rat brain synaptic vesicles, 3 nM [3H]DTBZ; read-out: Inhibition of [3H]DTBZ binding (Ki) VMAT2
Protocol: [^3H]Dihydrotetrabenazine ([^3H]DTBZ) Binding Assay, Vesicular Preparation
The resulting supernatant (S1) was then centrifuged at 22,000 g for 10 min at 4° C. The synaptosomal pellets (P2) were homogenized in 18 mL of ice-cold Milli-Q water and exposed for 5 min for lysing synaptosomes. Osmolarity was restored by addition of 2 mL of 25 mM HEPES with 100 mM dipotassium tartrate (pH 7.5). Samples were centrifuged at 20,000 g for 20 min at 4° C. to remove lysed synaptosomal membranes. MgSO4 (1 mM) was added to the supernatant (S3), and was centrifuged at 100,000 g for 45 min at 4° C. […] Aliquot parts (100 μL) of suspension of vesicle membrane protein were incubated in assay buffer (25 mM HEPES, 100 mM dipotassium tartrate, 5 mM MgSO4, 0.1 mM EDTA and 0.05 mM EGTA, pH 7.5, at 25° C.) in the presence of 3 nM [^3H]DTBZ and at least 7 concentrations (1 nM-1 mM) of compound for 1 hr at room temperature. Nonspecific binding was determined in the presence of 20 μM tetrabenazine, a standard compound. Assays were performed in duplicate using a 96-well plate format. Reactions were terminated by filtration of samples on a Unifilter-96 GF/B filter plates (presoaked in 0.5% polyethylenimine), using a FilterMate harvester (Packard BioScience Co., Meriden, Conn.).
After washing 5 times with 350 μL of the ice-cold wash buffer (25 mM HEPES, 100 mM dipotassium tartrate, 5 mM MgSO4 and 10 mM NaCl, pH 7.5), filter plates were dried, sealed and each well filled with 40 μL Packard's MicroScint 20 cocktail. Bound [^3H]DTBZ was measured using a Packard TopCount NXT scintillation counter with a Packard Windows NT based operating system.

hERG channel = molecular target: T4, hERG channel (Homo sapiens, UniProt Q12809); experiment: [3H]Dofetilide binding assay, HEK-293 cell membrane preparation; conditions: HEK-293 cell membranes expressing hERG, 5 nM [3H]dofetilide; read-out: hERG [3H]Dofetilide Binding Inhibition Mean ± SEM (IC50)
T4 construct: expressed in transfected cells
T4 sequence (Q12809 whole entry): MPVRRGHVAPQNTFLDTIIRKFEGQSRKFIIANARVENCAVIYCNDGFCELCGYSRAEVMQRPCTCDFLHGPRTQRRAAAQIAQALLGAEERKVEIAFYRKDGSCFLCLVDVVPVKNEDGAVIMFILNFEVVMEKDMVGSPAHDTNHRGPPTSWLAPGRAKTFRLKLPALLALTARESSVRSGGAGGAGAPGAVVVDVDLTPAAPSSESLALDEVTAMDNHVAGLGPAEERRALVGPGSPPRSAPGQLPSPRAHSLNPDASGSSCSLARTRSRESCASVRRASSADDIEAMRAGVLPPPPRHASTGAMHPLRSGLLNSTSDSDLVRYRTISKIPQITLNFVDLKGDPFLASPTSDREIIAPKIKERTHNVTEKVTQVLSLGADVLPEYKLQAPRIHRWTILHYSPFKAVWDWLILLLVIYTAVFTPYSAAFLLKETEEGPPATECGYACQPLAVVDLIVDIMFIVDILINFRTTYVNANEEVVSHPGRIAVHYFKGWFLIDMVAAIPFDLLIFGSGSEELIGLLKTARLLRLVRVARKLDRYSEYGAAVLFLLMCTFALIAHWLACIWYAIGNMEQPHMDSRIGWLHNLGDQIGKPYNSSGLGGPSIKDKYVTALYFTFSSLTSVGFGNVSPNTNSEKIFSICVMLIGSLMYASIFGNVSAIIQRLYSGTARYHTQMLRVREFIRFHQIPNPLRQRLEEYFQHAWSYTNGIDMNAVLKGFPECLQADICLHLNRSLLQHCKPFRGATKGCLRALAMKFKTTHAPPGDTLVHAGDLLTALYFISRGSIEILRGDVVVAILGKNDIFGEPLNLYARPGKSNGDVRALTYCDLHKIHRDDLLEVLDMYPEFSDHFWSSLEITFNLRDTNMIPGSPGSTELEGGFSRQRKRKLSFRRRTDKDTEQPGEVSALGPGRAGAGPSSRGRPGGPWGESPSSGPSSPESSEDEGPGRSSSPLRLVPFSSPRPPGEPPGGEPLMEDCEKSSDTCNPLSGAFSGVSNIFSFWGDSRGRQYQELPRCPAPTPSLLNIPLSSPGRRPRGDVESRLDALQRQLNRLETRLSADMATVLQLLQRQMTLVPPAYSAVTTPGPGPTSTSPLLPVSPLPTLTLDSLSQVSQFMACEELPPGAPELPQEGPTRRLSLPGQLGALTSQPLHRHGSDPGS
Protocol: [^3H]Dofetilide Binding Assay, HEK-293 Cell Membrane Preparation
[^3H]Dofetilide binding assays were conducted using commercially available HEK-293 cell membranes which stably express the hERG channel. Membranes were suspended in assay buffer (50 mM Tris, 10 mM KCl, 1 mM MgCl2, pH 7.4) prior to the experiment. Assays were performed in duplicate in a total volume of 250 μL. Aliquots of the HEK-293 cell membrane suspension which contained 5 μg membrane protein were added to tubes containing assay buffer, 5 nM [^3H]dofetilide and a range of concentrations of analog (10 nM-100 μM). Nonspecific binding was determined in the presence of amitriptyline (1 mM). Samples were incubated for 1 hr. at 24° C., followed by rapid filtration. Radioactivity retained by the filters was determined by liquid scintillation spectrometry as described above for the [^3H]DA uptake assay. The affinity for the [^3H]dofetilide binding site on the hERG channel expressed in the HEK-293 cellular membrane was determined from the analog concentration response curves.

[5] = system: VMAT2 over hERG, DAT and SERT; experiment: Lead compound criteria: 30-fold selectivity for VMAT2 over hERG, DAT and SERT; conditions: criterion: 30-fold selectivity for VMAT2 over hERG
Excerpt: Accordingly, this test assessed the potential of the tested compounds to produce cardiac arrhythmias via interaction at this off-target site. The criterion for compounds to be considered leads was a 30-fold selectivity for VMAT2 over hERG.

[6] = rat striatal synaptic vesicles, 0.1 μM [3H]DA, read-out: [3H]DA Uptake (Ki) VMAT2
[7] = synaptic vesicle preparations, summary of Table 1, read-out: inhibition of [3H]DA uptake, Ki

## COc1cccc(CCN2CCC(CCc3ccccc3)CC2)c1 [Compound 2]
[1]
  Ki: 1.15 ± 0.09 µM
VMAT2 [2]; [6]
  Ki: 0.022 ± 0.00087 µM
[3]
  Ki: 3.13 ± 0.19 µM
VMAT2 [4]
  Ki: 0.265 ± 0.038 µM
hERG channel
  IC50: 0.489 ± 0.0847 µM

## COc1cc(OC)c(OC)cc1CCC1CCN(CCc2ccccc2)CC1 [Compound 9]
VMAT2 [2]; [6]
  Ki: 0.094 ± 0.0096 µM
[3]
  Ki: 5.46 ± 0.12 µM
VMAT2 [4]
  Ki: 0.38 ± 0.049 µM
hERG channel
  IC50: 8.1 ± 0.585 µM

## COc1ccccc1CCC1CCN(CCc2ccccc2OC)CC1 [Compound 12, 1,4-bis(2-methoxyphenethyl)piperidine]
[1]
  Ki: 0.12 ± 0.01 µM
[5]
  lead compound status (30-fold selectivity for VMAT2 over hERG, DAT and SERT): successfully met the criteria for lead compound status
VMAT2 [2]; [6]
  Ki: 0.0093 ± 0.0006 µM
VMAT2 [2]; [7]
  Ki: 0.009 to 0.02 µM
[3]
  Ki: 3.45 ± 0.45 µM
VMAT2 [4]
  Ki: 0.19 ± 0.0088 µM
hERG channel
  IC50: 1.07 ± 0.0906 µM

## COc1ccccc1CCC1CCN(CCc2ccccc2)CC1 [Compound 13]
[1]
  Ki: 0.75 ± 0.18 µM
[5]
  lead compound status (30-fold selectivity for VMAT2 over hERG, DAT and SERT): successfully met the criteria for lead compound status
VMAT2 [2]; [6]
  Ki: 0.022 ± 0.0028 µM
[3]
  Ki: 3.56 ± 1.21 µM
VMAT2 [4]
  Ki: 0.69 ± 0.05 µM
hERG channel
  IC50: 1.65 ± 0.67 µM

## COc1ccc(CCC2CCN(CCc3ccccc3Cl)CC2)cc1 [Compound 24]
[1]
  Ki: 4.15 ± 1.45 µM
[5]
  lead compound status (30-fold selectivity for VMAT2 over hERG, DAT and SERT): successfully met the criteria for lead compound status
VMAT2 [2]; [6]
  Ki: 0.04 ± 0.007 µM
[3]
  Ki: 5.16 ± 1.25 µM
VMAT2 [4]
  Ki: 0.23 ± 0.02 µM
hERG channel
  IC50: 2.09 ± 0.391 µM

## COc1ccccc1CCC1CCN(CCc2ccccc2Cl)CC1 [Compound 28, 1-(2-chlorophenethyl)-4-(2-methoxyphenethyl)piperidine]
VMAT2 [2]; [6]
  Ki: 0.02 ± 0.003 µM
VMAT2 [2]; [7]
  Ki: 0.009 to 0.02 µM
[3]
  Ki: 1.25 ± 0.307 µM
VMAT2 [4]
  Ki: 0.19 ± 0.02 µM
hERG channel
  IC50: 1.19 ± 0.181 µM

## COc1ccccc1CCC1CCN(CCc2ccc(F)cc2)CC1 [Compound 29, 1-(4-fluorophenethyl)-4-(2-methoxyphenethyl)piperidine]
[1]
  Ki: 0.58 ± 0.07 µM
VMAT2 [2]; [6]
  Ki: 0.013 ± 0.0021 µM
VMAT2 [2]; [7]
  Ki: 0.009 to 0.02 µM
[3]
  Ki: 4.13 ± 0.44 µM
VMAT2 [4]
  Ki: 0.4 ± 0.097 µM
hERG channel
  IC50: 0.347 ± 0.0188 µM

## COc1cccc(CCN2CCC(CCc3ccc(OC)cc3F)CC2)c1 [Compound 38, 4-(2-fluoro-4-methoxyphenethyl)-1-(3-methoxyphenethyl)piperidine]
VMAT2 [2]; [6]
  Ki: 0.083 ± 0.0038 µM
[3]
  Ki: 2.94 ± 0.27 µM
VMAT2 [4]
  Ki: 0.19 ± 0.009 µM
hERG channel
  IC50: 0.479 ± 0.0643 µM

## COc1ccc(CCN2CCC(CCc3ccc(OC)cc3F)CC2)cc1 [Compound 39]
VMAT2 [2]; [6]
  Ki: 0.044 ± 0.0033 µM
VMAT2 [4]
  Ki: 1.61 ± 0.078 µM
hERG channel
  IC50: 0.299 ± 0.0459 µM

## COc1ccc(CCC2CCN(CCc3ccccc3Cl)CC2)c(F)c1 [Compound 40]
VMAT2 [2]; [6]
  Ki: 0.067 ± 0.021 µM
VMAT2 [4]
  Ki: 0.23 ± 0.015 µM
hERG channel
  IC50: 1.41 ± 0.166 µM

## COc1ccc(CCC2CCN(CCc3ccc(F)cc3)CC2)c(F)c1 [Compound 41]
VMAT2 [2]; [6]
  Ki: 0.06 ± 0.0082 µM
[3]
  Ki: 3.48 ± 0.415 µM
VMAT2 [4]
  Ki: 0.6 ± 0.075 µM
hERG channel
  IC50: 3.6 ± 1.22 µM

## Fc1cc(F)cc(CCC2CCN(CCc3ccccc3)CC2)c1 [Compound 42]
VMAT2 [2]; [6]
  Ki: 0.051 ± 0.0035 µM
VMAT2 [4]
  Ki: 1.1 ± 0.087 µM
hERG channel
  IC50: 0.258 µM

## COc1ccccc1CCN1CCC(CCc2cc(F)cc(F)c2)CC1 [Compound 43]
VMAT2 [2]; [6]
  Ki: 0.034 ± 0.0039 µM
VMAT2 [4]
  Ki: 0.41 ± 0.038 µM
hERG channel
  IC50: 0.427 ± 0.134 µM

## COc1cccc(CCN2CCC(CCc3cc(F)cc(F)c3)CC2)c1 [Compound 44]
VMAT2 [2]; [6]
  Ki: 0.028 ± 0.0027 µM
[3]
  Ki: 1.91 ± 0.568 µM
VMAT2 [4]
  Ki: 0.25 ± 0.003 µM
hERG channel
  IC50: 0.477 ± 0.0429 µM

## Fc1ccc(CCN2CCC(CCc3cc(F)cc(F)c3)CC2)cc1 [Compound 47]
VMAT2 [2]; [6]
  Ki: 0.068 ± 0.016 µM
VMAT2 [4]
  Ki: 1.43 ± 0.28 µM
hERG channel
  IC50: 0.44 ± 0.0412 µM

## COc1ccccc1CN1CCC(CCc2ccccc2)CC1 [Compound 49]
VMAT2 [2]; [6]
  Ki: 0.07 ± 0.0075 µM
VMAT2 [4]
  Ki: 9.36 ± 1.32 µM
hERG channel
  IC50: 0.568 ± 0.122 µM

## c1ccc(CCN2CCN(CCc3ccccc3)CC2)cc1 [Compound 54, 1,4-diphenethylpiperazine]
[1]
  Ki: 11.4 ± 4.14 µM
VMAT2 [2]; [6]
  Ki: 0.11 ± 0.012 µM
[3]
  Ki: 13.6 ± 2.69 µM
VMAT2 [4]
  Ki: 3.05 ± 0.64 µM
hERG channel
  IC50: 3.39 ± 1.94 µM

## COc1ccccc1CCN1CCN(CCc2ccccc2OC)CC1 [Compound 55]
[1]
  Ki: 1.58 ± 0.415 µM
[3]
  Ki: 14.4 ± 0.456 µM
hERG channel
  IC50: 1.02 ± 0.18 µM

## COc1cccc(CCN2CCN(CCc3cccc(OC)c3)CC2)c1 [Compound 56]
[1]
  Ki: 3.62 ± 1.3 µM
[3]
  Ki: 7.9 ± 2.89 µM
hERG channel
  IC50: 1.49 ± 0.204 µM

## Clc1ccccc1CCN1CCN(CCc2ccccc2Cl)CC1 [Compound 58]
[1]
  Ki: 3.34 ± 1.53 µM
[3]
  Ki: 6.31 ± 1.01 µM
hERG channel
  IC50: 1.08 ± 0.175 µM

## Fc1ccc(CCN2CCN(CCc3ccc(F)cc3)CC2)cc1 [Compound 59]
[1]
  Ki: 4.95 ± 0.9 µM
VMAT2 [2]; [6]
  Ki: 0.058 ± 0.012 µM
[3]
  Ki: 6.58 ± 1.41 µM
VMAT2 [4]
  Ki: 3.71 ± 0.48 µM
hERG channel
  IC50: 0.362 ± 0.0155 µM

## COc1ccccc1CCN1CCN(CCc2ccccc2)CC1 [Compound 60]
[1]
  Ki: 2.58 ± 0.415 µM
[3]
  Ki: 12.8 ± 4.46 µM
hERG channel
  IC50: 3.19 ± 0.327 µM

## COc1cccc(CCN2CCN(CCc3ccccc3)CC2)c1 [Compound 61]
[1]
  Ki: 6.92 ± 1.35 µM
[5]
  lead compound status (30-fold selectivity for VMAT2 over hERG, DAT and SERT): successfully met the criteria for lead compound status
VMAT2 [2]; [6]
  Ki: 0.098 ± 0.016 µM
[3]
  Ki: 17.2 ± 4.52 µM
VMAT2 [4]
  Ki: 1.3 ± 0.33 µM
hERG channel
  IC50: 4.23 ± 0.86 µM

## COc1ccc(CCN2CCN(CCc3ccccc3)CC2)cc1 [Compound 62]
[1]
  Ki: 3.72 ± 0.02 µM
[5]
  lead compound status (30-fold selectivity for VMAT2 over hERG, DAT and SERT): successfully met the criteria for lead compound status
VMAT2 [2]; [6]
  Ki: 0.1 ± 0.011 µM
[3]
  Ki: 11.6 ± 3.08 µM
VMAT2 [4]
  Ki: 4.63 ± 1.31 µM
hERG channel
  IC50: 9.19 ± 0.375 µM

## Clc1ccccc1CCN1CCN(CCc2ccccc2)CC1 [Compound 63]
VMAT2 [2]; [6]
  Ki: 0.063 ± 0.0069 µM
[3]
  Ki: 10.4 ± 1.85 µM
VMAT2 [4]
  Ki: 1.59 ± 0.26 µM
hERG channel
  IC50: 2.84 ± 0.287 µM

## Fc1ccc(CCN2CCN(CCc3ccccc3)CC2)cc1 [Compound 64]
[1]
  Ki: 4.46 ± 0.727 µM
VMAT2 [2]; [6]
  Ki: 0.088 ± 0.0069 µM
[3]
  Ki: 8.04 ± 2.57 µM
VMAT2 [4]
  Ki: 3.86 ± 1.01 µM
hERG channel
  IC50: 2.29 ± 0.475 µM

## COc1cccc(CCN2CCCN(CCc3cccc(OC)c3)CC2)c1 [Compound 67]
VMAT2 [2]; [6]
  Ki: 0.1 ± 0.01 µM
VMAT2 [4]
  Ki: 2.24 ± 0.53 µM
hERG channel
  IC50: 1.12 ± 0.0857 µM

## Fc1ccc(CCN2CCCN(CCc3ccc(F)cc3)CC2)cc1 [Compound 70]
VMAT2 [2]; [6]
  Ki: 0.085 ± 0.0052 µM
VMAT2 [4]
  Ki: 5.05 ± 0.77 µM
hERG channel
  IC50: 0.057 ± 0.0027 µM
